Experiments:
rice = test: Test B flooded paddy test; format: in vivo, Oryza sativa; settings: 250 g ai/ha, Flood, 13 days, 0 to 100 scale (0 no effect, 100 complete control)
Method in brief: (§1)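 Application into standing water (3 cm above soil) at the two-leaf stage; flood depth held constant. Evaluation: day 13, visual comparison with controls, 0 = no injury, 100 = complete control.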

goosegrass [1] = test: Test A postemergence; format: in vivo, Eleusine indica
Method in brief: (§2)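 Weeds and crops in loam–sand blend were sprayed preemergence onto soil or postemergence at 2–10 cm (one- to two-leaf stage). Test chemicals were in a non-phytotoxic solvent with surfactant. After 10 days in the greenhouse, injury was rated visually against untreated controls on a 0 (no effect) to 100 (complete control) scale.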

blackgrass [2] = test: Test A postemergence; format: in vivo, Alopecurus myosuroides
Method in brief: as §2

corn [3] = test: Test A postemergence; format: in vivo, Zea mays
Method in brief: as §2

kochia [4] = test: Test A postemergence; format: in vivo, Bassia scoparia
Method in brief: as §2

ryegrass, Italian [5] = test: Test A postemergence; format: in vivo, Lolium multiflorum
Method in brief: as §2

sedge, umbrella = test: Test B flooded paddy test; format: in vivo, Cyperus difformis; settings: 250 g ai/ha, Flood, 13 days, 0 to 100 scale (0 no effect, 100 complete control)
Method in brief: as §1

barnyardgrass = test: Test B flooded paddy test; format: in vivo, Echinochloa crus-galli; settings: 250 g ai/ha, Flood, 13 days, 0 to 100 scale (0 no effect, 100 complete control)
Method in brief: as §1

oat, wild [6] = test: Test A postemergence; format: in vivo, Avena fatua
Method in brief: as §2

galium = test: Test A postemergence; format: in vivo, Galium aparine
Method in brief: as §2

pigweed, palmer [7] = test: Test A preemergence; format: in vivo, Amaranthus palmeri
Method in brief: as §2

corn [8] = test: Test A preemergence; format: in vivo, Zea mays
Method in brief: as §2

foxtail, giant [9] = test: Test A preemergence; format: in vivo, Setaria faberi
Method in brief: as §2

ryegrass, Italian [10] = test: Test A preemergence; format: in vivo, Lolium multiflorum
Method in brief: as §2

kochia [11] = test: Test A preemergence; format: in vivo, Bassia scoparia
Method in brief: as §2

pigweed, palmer [12] = test: Test A postemergence; format: in vivo, Amaranthus palmeri
Method in brief: as §2

wheat [13] = test: Test A preemergence; format: in vivo, Triticum aestivum
Method in brief: as §2

soybean [14] = test: Test A preemergence; format: in vivo, Glycine max
Method in brief: as §2

ducksalad = test: Test B flooded paddy test; format: in vivo, Heteranthera limosa; settings: 250 g ai/ha, Flood, 13 days, 0 to 100 scale (0 no effect, 100 complete control)
Method in brief: as §1

soybean [15] = test: Test A postemergence; format: in vivo, Glycine max
Method in brief: as §2

ragweed [16] = test: Test A postemergence; format: in vivo, Ambrosia artemisiifolia
Method in brief: as §2

oat, wild [17] = test: Test A preemergence; format: in vivo, Avena fatua
Method in brief: as §2

ragweed [18] = test: Test A preemergence; format: in vivo, Ambrosia artemisiifolia
Method in brief: as §2

horseweed = test: Test A postemergence; format: in vivo, Erigeron canadensis
Method in brief: as §2

blackgrass [19] = test: Test A preemergence; format: in vivo, Alopecurus myosuroides
Method in brief: as §2

goosegrass [20] = test: Test A preemergence; format: in vivo, Eleusine indica
Method in brief: as §2

foxtail, giant [21] = test: Test A postemergence; format: in vivo, Setaria faberi
Method in brief: as §2

wheat [22] = test: Test A postemergence; format: in vivo, Triticum aestivum
Method in brief: as §2

[23] = 125 g ai/ha, postemergence, 10 days, visual injury, 0 to 100 scale (0 no effect, 100 complete control)
[24] = 500 g ai/ha, postemergence, 10 days, visual injury, 0 to 100 scale (0 no effect, 100 complete control)
[25] = 500 g ai/ha, Postemergence, 0 to 100 scale
[26] = 125 g ai/ha, visual injury after 10 days, 0 to 100 scale, 0 is no effect, 100 is complete control
[27] = 500 g ai/ha, 0 to 100 scale (0 no effect, 100 complete control), 10 days

SMILES: Cc1cccc2c1O[C@@H](C)CN2C(=O)c1cccc(-n2cnc(Cl)n2)c1 [Compound 69]
- Plant response rating, Rice (rice): 0
- Plant response rating, Goosegrass (goosegrass [1]; [23]): 0
- Plant response rating, Goosegrass (goosegrass [1]; [24]): 20
- Plant response rating, Blackgrass (blackgrass [2]; [23]): 0
- Plant response rating, Blackgrass (blackgrass [2]; [25]): 60
- Plant response rating, Corn (corn [3]; [23]): 10
- Plant response rating, Corn (corn [3]; [24]): 30
- Plant response rating, Kochia (kochia [4]; [23]): 20
- Plant response rating, Kochia (kochia [4]; [24]): 60
- Plant response rating, Ryegrass, Italian (ryegrass, Italian [5]; [24]): 70
- Plant response rating, Sedge, Umbrella (sedge, umbrella): 0
- Plant response rating, Barnyardgrass (barnyardgrass): 0
- Plant response rating, Oat, Wild (oat, wild [6]; [24]): 30
- Plant response rating, Galium (galium; [23]): 60
- Plant response rating, Galium (galium; [24]): 100
- Plant response rating, Pigweed, Palmer (pigweed, palmer [7]; [26]): 20
- Plant response rating, Pigweed, Palmer (pigweed, palmer [7]; [27]): 90
- Plant response rating, Corn (corn [8]; [26]): 30
- Plant response rating, Corn (corn [8]; [27]): 30
- Plant response rating, Foxtail, Giant (foxtail, giant [9]; [26]): 90
- Plant response rating, Foxtail, Giant (foxtail, giant [9]; [27]): 90
- Plant response rating, Ryegrass, Italian (ryegrass, Italian [10]; [26]): 80
- Plant response rating, Ryegrass, Italian (ryegrass, Italian [10]; [27]): 80
- Plant response rating, Kochia (kochia [11]; [26]): 60
- Plant response rating, Kochia (kochia [11]; [27]): 70
- Plant response rating, Pigweed, Palmer (pigweed, palmer [12]; [24]): 40
- Plant response rating, Wheat (wheat [13]; [26]): 10
- Plant response rating, Wheat (wheat [13]; [27]): 20
- Plant response rating, Soybean (soybean [14]; [26]): 0
- Plant response rating, Soybean (soybean [14]; [27]): 0
- Plant response rating, Ducksalad (ducksalad): 0
- Plant response rating, Soybean (soybean [15]; [24]): 100
- Plant response rating, Ragweed (ragweed [16]; [24]): 30
- Plant response rating, Oat, Wild (oat, wild [17]; [26]): 20
- Plant response rating, Oat, Wild (oat, wild [17]; [27]): 70
- Plant response rating, Ragweed (ragweed [18]; [26]): 0
- Plant response rating, Ragweed (ragweed [18]; [27]): 0
- Plant response rating, Horseweed (horseweed; [23]): 0
- Plant response rating, Horseweed (horseweed; [24]): 0
- Plant response rating, Blackgrass (blackgrass [19]; [26]): 40
- Plant response rating, Blackgrass (blackgrass [19]; [27]): 90
- Plant response rating, Goosegrass (goosegrass [20]; [26]): 90
- Plant response rating, Goosegrass (goosegrass [20]; [27]): 100
- Plant response rating, Foxtail, Giant (foxtail, giant [21]; [23]): 20
- Plant response rating, Foxtail, Giant (foxtail, giant [21]; [24]): 80
- Plant response rating, Wheat (wheat [22]; [24]): 10

SMILES: Cc1ncn(-c2cccc(C(=O)N3C[C@H](C)Oc4c(C)cccc43)c2)n1 [Compound 51]
- Plant response rating, Rice (rice): 15
- Plant response rating, Goosegrass (goosegrass [1]; [23]): 40
- Plant response rating, Goosegrass (goosegrass [1]; [25]): 80
- Plant response rating, Blackgrass (blackgrass [2]; [23]): 40
- Plant response rating, Blackgrass (blackgrass [2]; [25]): 50
- Plant response rating, Corn (corn [3]; [23]): 30
- Plant response rating, Corn (corn [3]; [25]): 50
- Plant response rating, Kochia (kochia [4]; [23]): 60
- Plant response rating, Kochia (kochia [4]; [25]): 70
- Plant response rating, Ryegrass, Italian (ryegrass, Italian [5]; [23]): 70
- Plant response rating, Ryegrass, Italian (ryegrass, Italian [5]; [25]): 90
- Plant response rating, Sedge, Umbrella (sedge, umbrella): 80
- Plant response rating, Barnyardgrass (barnyardgrass): 25
- Plant response rating, Oat, Wild (oat, wild [6]; [23]): 30
- Plant response rating, Oat, Wild (oat, wild [6]; [25]): 70
- Plant response rating, Galium (galium; [23]): 80
- Plant response rating, Galium (galium; [25]): 100
- Plant response rating, Pigweed, Palmer (pigweed, palmer [7]; [26]): 0
- Plant response rating, Pigweed, Palmer (pigweed, palmer [7]; [27]): 60
- Plant response rating, Corn (corn [8]; [26]): 20
- Plant response rating, Corn (corn [8]; [27]): 50
- Plant response rating, Foxtail, Giant (foxtail, giant [9]; [26]): 100
- Plant response rating, Foxtail, Giant (foxtail, giant [9]; [27]): 100
- Plant response rating, Ryegrass, Italian (ryegrass, Italian [10]; [26]): 90
- Plant response rating, Ryegrass, Italian (ryegrass, Italian [10]; [27]): 100
- Plant response rating, Kochia (kochia [11]; [26]): 70
- Plant response rating, Kochia (kochia [11]; [27]): 90
- Plant response rating, Pigweed, Palmer (pigweed, palmer [12]; [23]): 20
- Plant response rating, Pigweed, Palmer (pigweed, palmer [12]; [25]): 50
- Plant response rating, Wheat (wheat [13]; [26]): 20
- Plant response rating, Wheat (wheat [13]; [27]): 60
- Plant response rating, Soybean (soybean [14]; [26]): 90
- Plant response rating, Soybean (soybean [14]; [27]): 100
- Plant response rating, Ducksalad (ducksalad): 65
- Plant response rating, Soybean (soybean [15]; [23]): 100
- Plant response rating, Soybean (soybean [15]; [25]): 100
- Plant response rating, Ragweed (ragweed [16]; [23]): 0
- Plant response rating, Ragweed (ragweed [16]; [25]): 0
- Plant response rating, Oat, Wild (oat, wild [17]; [26]): 30
- Plant response rating, Oat, Wild (oat, wild [17]; [27]): 90
- Plant response rating, Ragweed (ragweed [18]; [26]): 0
- Plant response rating, Ragweed (ragweed [18]; [27]): 0
- Plant response rating, Horseweed (horseweed; [23]): 0
- Plant response rating, Horseweed (horseweed; [25]): 20
- Plant response rating, Blackgrass (blackgrass [19]; [26]): 30
- Plant response rating, Blackgrass (blackgrass [19]; [27]): 60
- Plant response rating, Goosegrass (goosegrass [20]; [26]): 90
- Plant response rating, Goosegrass (goosegrass [20]; [27]): 100
- Plant response rating, Foxtail, Giant (foxtail, giant [21]; [23]): 90
- Plant response rating, Foxtail, Giant (foxtail, giant [21]; [25]): 90
- Plant response rating, Wheat (wheat [22]; [23]): 30
- Plant response rating, Wheat (wheat [22]; [25]): 80
